The text below walks through data of ChEMBL document CHEMBL1201862, “PubChem BioAssay data set” (2004).

Among the test systems are 786-0; LOX IMVI; SR; SF-539; U-251; NCI-H23; T47D; HCC 2998; EKVX; SK-MEL-28; MDA-MB-435; ACHN; OVCAR-8; HOP-62; OVCAR-4; NCI/ADR-RES; UACC-62; SK-OV-3; Malme-3M; K562.
Test in all cases: inhibition of tumour cell growth, NCI panel, 48 h

Molecules are shown by their SMILES.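 Values below derive from 48-hour exposures of cells grown in 96-well plates, with endpoints linearly interpolated between the two concentrations bracketing the appropriate inhibition level. At the GI50, growth is halved.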 Active and inactive are the calls of the source. No stated cut-off is given here; in the data, active = GI50 up to about 1.1 µM and inactive = higher.

For `O=C(/C=C/c1ccc(Cl)c(Cl)c1)Oc1ccc(/C=C2\CCCCC2=O)cc1`, the GI50 in the assay on 786-0, with LOX IMVI, in the assay with SR, in the assay on SF-539, with U-251 and in the assay on NCI-H23 was > 100 µM (inactive) throughout. Moreover, the GI50 with T47D was > 100 µM (inactive); in the assay on HCC 2998, > 100 µM (inactive); with EKVX, > 100 µM (inactive); in the assay with SK-MEL-28, > 100 µM (inactive); with MDA-MB-435, 78.2 µM (inactive); in the assay with ACHN it was > 100 µM (inactive). For the same compound, the GI50 with OVCAR-8, with HOP-62, with OVCAR-4, with NCI/ADR-RES and in the assay on UACC-62 was > 100 µM (inactive) each time.

As for `Cc1cc(O)cc2c1c(=O)c1ccccc1n2C`, the GI50 in the assay on 786-0 was 44.4 µM (inactive); in the assay on LOX IMVI, > 100 µM (inactive); with SR, 48.5 µM (inactive); with SF-539, 32.5 µM (inactive); in the assay on U-251, 54.1 µM (inactive); with NCI-H23, 38.9 µM (inactive). Besides, the GI50 with T47D is 73.5 µM (inactive); with EKVX, > 100 µM (inactive); in the assay with MDA-MB-435, > 100 µM (inactive); in the assay with ACHN, 89.7 µM (inactive); in the assay with OVCAR-8, 31.7 µM (inactive); with OVCAR-4, 80.2 µM (inactive). Moreover, the GI50 in the assay on NCI/ADR-RES is 68.1 µM (inactive); in the assay on UACC-62, > 100 µM (inactive); with SK-OV-3, 75.2 µM (inactive).

In the case of `O=C1C[C@@H](Sc2ccccc2)C2(OCCO2)C2ON3CCCC[C@H]3[C@H]12` (stereo not given in full), the GI50 with 786-0 is 3.53 µM (inactive); in the assay with LOX IMVI it was 2.49 µM (inactive); with SR it was 0.927 µM (active); in the assay with Malme-3M, 8.41 µM (inactive); in the assay on SF-539 it was 1.94 µM (inactive); with U-251, 4.73 µM (inactive). In addition, the GI50 in the assay on NCI-H23 is 9.38 µM (inactive); in the assay on T47D, 16.2 µM (inactive); in the assay with EKVX, 10.8 µM (inactive); with SK-MEL-28, 19.4 µM (inactive); in the assay on MDA-MB-435 it was 11.7 µM (inactive); with ACHN it was 2.49 µM (inactive). The GI50 in the assay on OVCAR-8 is 3.87 µM (inactive); with K562 it was 2.11 µM (inactive); in the assay on HOP-62, 16.5 µM (inactive); in the assay with OVCAR-4 it was 7.73 µM (inactive); in the assay with NCI/ADR-RES, 5.78 µM (inactive); in the assay with UACC-62, 6.03 µM (inactive). Further, in the assay with SK-OV-3, the GI50 is 41.5 µM (inactive).

Turning to `CCOC(=O)c1cc2nc3ccccc3c(=O)n2c2ccccc12`, the GI50 in the assay on 786-0, in the assay with LOX IMVI, in the assay with Malme-3M, in the assay on SF-539, with U-251 and in the assay on NCI-H23 was > 10 µM (inactive) in each case. Moreover, the GI50 in the assay on T47D, in the assay with HCC 2998, in the assay on EKVX, in the assay with SK-MEL-28, in the assay with MDA-MB-435 and in the assay on ACHN was > 10 µM (inactive) each time. The GI50 in the assay on OVCAR-8, with K562, in the assay on HOP-62, in the assay on OVCAR-4, in the assay on NCI/ADR-RES and in the assay with UACC-62 was > 10 µM (inactive) in each case. Besides, in the assay with SK-OV-3, the GI50 was > 10 µM (inactive).

Turning to `COC(=O)/C=C1/SC(/C(=C(/[O-])OC)[n+]2ccc3ccccc3c2)=NC1=O`, the GI50 in the assay with 786-0 is > 100 µM (inactive); in the assay on LOX IMVI it was > 100 µM (inactive); with SR, 63 µM (inactive); in the assay with Malme-3M it was > 100 µM (inactive); with SF-539, 23 µM (inactive); with U-251, 67.5 µM (inactive). The GI50 in the assay on NCI-H23, in the assay on T47D, in the assay with EKVX, with SK-MEL-28, in the assay with MDA-MB-435 and in the assay with ACHN was > 100 µM (inactive) throughout. Further, the GI50 in the assay on OVCAR-8, in the assay on K562, with HOP-62, with NCI/ADR-RES, in the assay with UACC-62 and in the assay with SK-OV-3 was > 100 µM (inactive) in each case.

In the case of `COC(=O)[C@H](Cc1ccccc1)NC(=O)N1CCN(C(=O)N[C@@H](Cc2ccccc2)C(=O)OC)CCN(C(=O)N[C@@H](Cc2ccccc2)C(=O)OC)CC1`, the GI50 in the assay with 786-0, in the assay with LOX IMVI, in the assay on Malme-3M, in the assay on U-251, in the assay with NCI-H23 and in the assay with T47D was > 100 µM (inactive) each time. Moreover, the GI50 in the assay on HCC 2998, in the assay on EKVX, in the assay with SK-MEL-28, in the assay with MDA-MB-435, with ACHN and in the assay with OVCAR-8 was > 100 µM (inactive) each time. For the same compound, the GI50 in the assay with K562, in the assay with HOP-62, in the assay with OVCAR-4, in the assay with NCI/ADR-RES, in the assay with UACC-62 and in the assay on SK-OV-3 was > 100 µM (inactive) in each case.

For the compound `COc1ccc2c(c1)CCN=C2Cc1ccccc1CCCl`, the GI50 is 25.3 µM (inactive) in the assay with 786-0; 51.2 µM (inactive) with SR; 20.5 µM (inactive) in the assay with SF-539; 33.1 µM (inactive) in the assay on U-251; 20.8 µM (inactive) in the assay with NCI-H23; 17.7 µM (inactive) in the assay on T47D. The GI50 was 17.1 µM (inactive) in the assay with HCC 2998; 37.2 µM (inactive) in the assay on EKVX; 32.6 µM (inactive) with SK-MEL-28; 17.1 µM (inactive) in the assay with MDA-MB-435; 30.1 µM (inactive) with ACHN; 23.4 µM (inactive) in the assay with OVCAR-8. Besides, the GI50 with K562 is 18 µM (inactive); with HOP-62, 36.5 µM (inactive); in the assay with OVCAR-4, 22 µM (inactive); in the assay with NCI/ADR-RES, 19.1 µM (inactive); with UACC-62, 22.5 µM (inactive); with SK-OV-3, 39.3 µM (inactive).

Turning to `Cc1cc(C)c(-n2c(C)c(C)c(C#N)c2N)c(C)c1`, the GI50 with 786-0 was 41 µM (inactive); in the assay on LOX IMVI, 19.2 µM (inactive); in the assay with SR, 11 µM (inactive); in the assay on Malme-3M it was 25.1 µM (inactive); in the assay on SF-539, 23.4 µM (inactive); with U-251 it was 17.4 µM (inactive). Further, the GI50 in the assay with NCI-H23 was 39 µM (inactive); with T47D, 26.3 µM (inactive); with EKVX, 27.5 µM (inactive); with SK-MEL-28, 37.1 µM (inactive); in the assay on MDA-MB-435 it was 23 µM (inactive); in the assay on ACHN, 31.3 µM (inactive). The GI50 with OVCAR-8 was 34.6 µM (inactive); with K562 it was 11 µM (inactive); in the assay on HOP-62, 35.8 µM (inactive); with OVCAR-4, 29 µM (inactive); in the assay on NCI/ADR-RES, 32.3 µM (inactive); in the assay with SK-OV-3, 33 µM (inactive).

With `O=[N+]([O-])c1cc2c(c3nonc13)OCCCCO2`, the GI50 in the assay with 786-0 was 2.02 µM (inactive); with LOX IMVI, 2.81 µM (inactive); in the assay with Malme-3M it was 3.66 µM (inactive); in the assay on SF-539, 2.82 µM (inactive); with U-251 it was 7.1 µM (inactive); in the assay on NCI-H23 it was 10.2 µM (inactive). Moreover, the GI50 in the assay with T47D is 26.5 µM (inactive); with HCC 2998, 17.3 µM (inactive); with EKVX, 18.2 µM (inactive); in the assay with SK-MEL-28 it was 9.89 µM (inactive); in the assay with MDA-MB-435 it was 5.25 µM (inactive); in the assay on ACHN it was 6.22 µM (inactive). Moreover, the GI50 is 4.36 µM (inactive) in the assay with OVCAR-8; 3.64 µM (inactive) in the assay on K562; 4.37 µM (inactive) in the assay on HOP-62; 14.2 µM (inactive) in the assay on OVCAR-4; 10.5 µM (inactive) in the assay with NCI/ADR-RES; 5.77 µM (inactive) with UACC-62. Moreover, the GI50 with SK-OV-3 is 26.4 µM (inactive).

Regarding `Cc1c(/N=N/c2ccc(Cl)cc2)c(-c2ccccc2)n(C2OC(CO)C(O)C(O)C2O)c(=S)c1C#N` (stereo not given), the GI50 in the assay on 786-0 was 20.2 µM (inactive); in the assay with LOX IMVI, 18.2 µM (inactive); in the assay with SR it was 20.6 µM (inactive); with Malme-3M, 25.5 µM (inactive); with SF-539 it was 20.7 µM (inactive); in the assay on U-251, 12.7 µM (inactive). Further, the GI50 was 10.7 µM (inactive) in the assay with NCI-H23; 19.1 µM (inactive) with T47D; 15.4 µM (inactive) with SK-MEL-28; 10.5 µM (inactive) with MDA-MB-435; 16 µM (inactive) in the assay on ACHN; 13.6 µM (inactive) in the assay on K562. The GI50 was 19.1 µM (inactive) in the assay on HOP-62; 17.2 µM (inactive) in the assay on OVCAR-4; 13.6 µM (inactive) in the assay on NCI/ADR-RES; 13.4 µM (inactive) with UACC-62; 16.9 µM (inactive) in the assay with SK-OV-3.

For the compound `CCc1n[nH]c(=O)[nH]1`, the GI50 in the assay on 786-0, with LOX IMVI, in the assay on SR, with Malme-3M, in the assay with SF-539 and with NCI-H23 was > 100 µM (inactive) throughout. Moreover, the GI50 with T47D, in the assay on HCC 2998, in the assay on EKVX, in the assay with MDA-MB-435, in the assay on ACHN and in the assay with OVCAR-8 was > 100 µM (inactive) throughout. The GI50 with K562, with HOP-62, with NCI/ADR-RES, in the assay with UACC-62 and in the assay with SK-OV-3 was > 100 µM (inactive) each time.
